Test results: US7049334B2, “Enhancement of learning and memory and treatment of amnesia” (priority 2001, dated 2006)

Key:
[1] = test system: rats (spatial memory); assay: Morris water maze; format: in vivo
Method: Morris water maze: Morris water maze was performed in a circular pool (224 cm in diameter, 46 cm in height) located in a room with distinctive visual cues. Water was filled to a depth of 36 cm and a transparent plastic platform (25×25 cm, 32 cm in height) was located at the center of a fixed quadrant. Rats were trained for two days in the task environment: free-swimming in the pool without the transparent plastic platform. Each training session was 2 min and the rats were picked up from the pool by an experimenter. Then, rats received 4 consecutive daily training trials for the following six days. During each training trial, each rat was placed into the water randomly from one of the quadrants. The rat had to swim until it climbed onto the plastic platform submerged underneath the water. The time duration from being placed into the water to climbing onto the plastic platform was recorded and defined as escape latency. […] Each rat stayed on the platform for 60 s, which also served as the interval of trial. Compound 1 (1 mg/kg) or vehicle was daily injected to each rat 10 min before the first training trial. After the last training trial of each day, each rat was dried by a towel, and an electric heater was placed in its home cage.
Substantial evidence implicates the hippocampus in acquisition and retention of spatial information. See, e.g., Ohon et al. (1979) Behav. Brain Sci. 2: 316–365; and Barnes (1988) Trend Neurosci. 11: 163–169. The effect of Compound 1 on the acquisition of spatial memory in the Morris water maze was tested. Rats received 4 consecutive training trials every day. Compound 1 (1 mg/kg) was daily injected (i.p., 1 mg/kg) 10 min before the first trial of training. […] The escape latencies of 2˜4 trials were 93.8±8.7 s, 79.3±12/3 s and 57.6±12.5 s for a control group, and 50.4±10.2 s, 47.3±6.8 s and 30.3±10.3 for the Compound 1 group (n=10), respectively. The escape latencies of the first trial on the following 3 training days were also markedly shortened in the Compound 1 group. The escape latencies were 91.1±9.8 s, 47.1±3.9 s and 35.3±6.1 s for the control group, and 55.4±12.8 s, 15.3±2.1 s, and 13.4±1.7 s for the Compound 1 group (n=10), respectively. […] The escape latency is shorter in the Compound 1 group throughout the whole experimental period up to 21 days although Compound 1 was only administered […] for 4 days. The mean escape latency on the day-21 is 13.5±1.8 s and 6.0±0.5 s (n=10 each) for the control group and the Compound 1 group, respectively. From results shown above, Compound 1 is a promising drug for improving learning and memory. Compound 1 was mixed with 1.25% carboxymethylcellulose (CMC) and orally delivered to stomach (10 mg/kg) directly 30 min before the first trial for 6 successive days.
Since L-NAME antagonized Compound 1-induced LTP enhancement in hippocampal slices, in vivo experiments were performed to test the effect of L-NAME on the improved learning and memory provoked by Compound 1. In these experiments, rats chronically implanted with cannulae were injected intracerebroventrically with L-NAME (1 mmole/10 mL) or saline 10 min before the first trial of daily training, concomitant with i.p. injection of Compound 1 (1 mg/kg). […] Intracerebroventricular administration of KT 5823 also impaired the Compound 1-induced enhancement.

[2] = test system: mice (motor learning); assay: Rotorod test; format: in vivo; conditions: i.p. 1 mg/kg 20 min before first trial, 28 rpm
Method: Rotorod Test: This experiment was performed with mice (male, 20–25 gm). A rotorod apparatus was a plastic cylindrical rod (3 cm in diameter×13 cm in length). The rod was supported at the ends by two walls and was 25 cm from the base of the walls. The walls at the ends of the rod were high enough so that the mice cannot climb off the rod. Three trials were performed for each experiment. Compound 1 (1 mg/kg) or vehicle was i.p. injected 20 min before the first trial. For each trial of the rotorod test, the mice were placed on the rod and timed until they fell off the rod. They were timed up to a maximum of 3 min. The interval was 10 min. The rod was turned by an electric motor at 28 rpm.
Cerebellar nitric oxide has been also reported to be involved in LTD and motor learning. See, e.g., Li et al. (1995) J. Neurophysiol. 74: 489–494. Compound 1 improving motor learning was studied. Mice were chosen for this kind of experiment. […] The performance of control mice got improvement with increasing trial numbers, with a better improvement at the third trial. […] It is obvious that Compound 1 can also improve motor learning by mainly acting on the cerebellum.

[3] = i.p. 1 mg/kg daily 10 min before first trial, n=10

OCc1ccc(-c2nn(Cc3ccccc3)c3ccccc23)o1 [Compound 1, 1-benzyl-3-(5′-hydroxymethyl-2′-furyl)-indazole]
enhanced learning and memory induced by Compound 1, with L-NAME ([1]; L-NAME intracerebroventricular 10 min before first trial, with i.p. Compound 1 (1 mg/kg)): significantly blocked
escape latency, trial 2 of first training day [1, 3]: 50.4 ± 10.2 s
escape latency, trial 3 of first training day [1, 3]: 47.3 ± 6.8 s
escape latency, trial 4 of first training day ([1]; i.p. 1 mg/kg daily 10 min before first trial, n=10, in s (unit assumed)): 30.3±10.3
escape latency of the first trial, first of the following 3 training days ([1]; i.p. 1 mg/kg, n=10): 55.4 ± 12.8 s
escape latency of the first trial, second of the following 3 training days ([1]; i.p. 1 mg/kg, n=10): 15.3 ± 2.1 s
escape latency of the first trial, third of the following 3 training days ([1]; i.p. 1 mg/kg, n=10): 13.4 ± 1.7 s
mean escape latency on day-21 ([1]; i.p. 1 mg/kg, n=10): 6.0 ± 0.5 s
Compound 1-induced enhancement, with KT 5823 ([1]; intracerebroventricular KT 5823): impaired
effect of oral administration on memory ([1]; oral 10 mg/kg in 1.25% CMC, 30 min before first trial for 6 successive days): promoted short-term and long-term memory
motor coordination on a turning rotorod [2]: significantly improved motor coordination
